The values below come from ChEMBL document CHEMBL5260804 (ACS Med Chem Lett, 2017).

Experiment [1] has as its target Matrix protein 2 (Influenza A virus) (UniProt P06821). The experiment is described as follows: Inhibition of full length influenza A virus A/Udorn/72 (H3N2) M2 expressed in Xenopus laevis oocytes assessed as inhibition of channel current at 100 uM measured after 2 mins by two-electrode voltage clamp assay relative to control. The format is cell-based. The conditions noted are these: Oocyte. (In general: Two-electrode voltage clamp holds a large cell at a set potential and records current.)

Experiment [2] has the same target. The experiment in a line: Binding affinity to C-terminal amidated influenza A virus A/Udorn/72 (H3N2) M2 transmembrane domain (22 to 46 residues) in DPC micelles at pH 8 assessed as change in entropy by ITC analysis. For orientation: Isothermal titration calorimetry measures the heat released or taken up as one component is titrated into another.
For a further experiment, the system named is Influenza A virus. The experiment is described as follows: Antiviral activity against amantadine-sensitive influenza A virus A/Udorn/72 (H3N2) infected in MDCK cells assessed as inhibition of virus-induced cytopathic effect incubated for 48 hrs by crystal violet/neutral red staining based assay. In kind it is functional, organism-based. For orientation: Protection from cytopathic effect is a common read-out in antiviral testing.

The target of experiment [3] is Matrix protein 2 (Influenza A virus) (UniProt P06821). Particulars: A/Udorn/72 (H3N2).
Chain of Matrix protein 2 (Influenza A virus) (P06821 whole entry): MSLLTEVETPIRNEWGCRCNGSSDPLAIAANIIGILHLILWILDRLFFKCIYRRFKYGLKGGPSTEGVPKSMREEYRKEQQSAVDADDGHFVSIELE
Description: Binding affinity to C-terminal amidated influenza A virus A/Udorn/72 (H3N2) M2 transmembrane domain (22 to 46 residues) in DPC micelles at pH 8 assessed as change in enthalpy by ITC analysis
For experiment [4] the target is unchanged. The experiment is described as follows: Inhibition of full length influenza A virus A/Udorn/72 (H3N2) M2 expressed in Xenopus laevis oocytes assessed as inhibition of channel current at 100 uM measured after 5 mins by two-electrode voltage clamp assay relative to control. The format is cell-based. The conditions noted are these: Oocyte.
The target is the same in experiment [5]. The conditions noted are these: A/Udorn/72 (H3N2). This is another data set of the same source.
Description: Binding affinity to C-terminal amidated influenza A virus A/Udorn/72 (H3N2) M2 transmembrane domain (22 to 46 residues) in DPC micelles at pH 8 assessed as gibbs free energy change by ITC analysis
For another experiment, the target named is Matrix protein 2 (Influenza A virus, UniProt P06821).
Chain of Matrix protein 2 (P06821 whole entry): as above

Take `CC(N)C12CC3CC(CC(C3)C1)C2` (racemic) [RIMANTADINE]: the inhibition in experiment [1] and in experiment [4] was 96% each time. Further, the -TdeltaS in experiment [2] was -1.04 kcal/mol. For the same compound, in the experiment with Influenza A virus, the IC50 (usually the concentration at which inhibition is half-maximal) was 50 nM. In experiment [3], this compound displayed a deltaH of -7.6 kcal/mol.

In the case of `C[C@H](N)C12CC3CC(CC(C3)C1)C2`, the inhibition (as a rule, how much of the control response was suppressed) in experiment [1] turned out to be 95%; in experiment [4], 96%. Moreover, the -TdeltaS in experiment [2] is -1.15 kcal/mol. Also, the IC50 in the experiment on Influenza A virus turned out to be 60 nM. In experiment [3], this compound yielded a deltaH of -7.73 kcal/mol.

As to `C[C@@H](N)C12CC3CC(CC(C3)C1)C2`, the inhibition in experiment [1] was 93%; in experiment [4], 95%. In experiment [5], this compound had a deltaG of -8.97 kcal/mol. Further, in experiment [2], the -TdeltaS was -1.42 kcal/mol. In the experiment with Influenza A virus, the IC50 came out at 50 nM. In experiment [3], the deltaH was -7.54 kcal/mol.

With `NC12CC3CC(CC(C3)C1)C2` [AMANTADINE], the deltaG in experiment [5] is -7.77 kcal/mol. Moreover, the -TdeltaS in experiment [2] was -1.11 kcal/mol. In addition, the IC50 in the experiment on Influenza A virus was found to be 330 nM. The compound further displayed a deltaH in experiment [3] of -6.66 kcal/mol. Also, the inhibition in experiment [4] is 95%.

On to `CC(C)(N)C12CC3CC(CC(C3)C1)C2`, for which the inhibition came to 90% in experiment [1] and 96% in experiment [4]. Moreover, the deltaG in experiment [5] is -9.3 kcal/mol. Further, in experiment [2], the -TdeltaS is -5.12 kcal/mol. For the same compound, the IC50 with Influenza A virus was 40 nM. On Matrix protein 2, the Kd (as a rule, the free concentration of one partner at which half of the binding sites on the other are occupied at equilibrium, for simple one-to-one binding) was found to be 130 nM. In experiment [3], this compound returned a deltaH of -4.19 kcal/mol.
